Twelve compounds from patent US7880007B2, “Bicyclic substituted phenyl piperidine modulators of muscarinic receptors” (Vertex Pharmaceuticals Incorporated, priority 2004, dated 2011) can be followed below.

What all share (type): cell-based
In one assay the target is T1, M3 muscarinic receptor (Homo sapiens, UniProt P20309).
T1 construct: expressed in transfected cells; host or cells: CHO (M3-CHO)
Nature of the assay: Functional mobilization of intracellular calcium (FLIPR), M3-CHO cells. The conditions noted are these: for Emax: 100% efficacy = maximum response obtained with the Carbachol control; for M3 Activity: M3-CHO cells, calcium mobilization (FLIPR). In a few lines: (§1)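 Calcium mobilisation read by FLIPR over 60 s (ex 488/em 540 nm) in recombinant muscarinic CHO lines loaded with calcium dye plus 1 mM probenecid. Compounds tested as agonists alone, or as inhibitors against EC80 carbachol after 15 min pre-incubation or co-addition; 0.5% DMSO; efficacy scaled to carbachol maximal response.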
Background: Calcium flux is commonly read through the fluorescence of an indicator in the cells.

The target of the next assay is T2, M1 muscarinic receptor (Homo sapiens, UniProt P11229).
T2 construct: expressed in transfected cells; host or cells: CHO (M1-CHO)
T2 sequence (P11229 1-460): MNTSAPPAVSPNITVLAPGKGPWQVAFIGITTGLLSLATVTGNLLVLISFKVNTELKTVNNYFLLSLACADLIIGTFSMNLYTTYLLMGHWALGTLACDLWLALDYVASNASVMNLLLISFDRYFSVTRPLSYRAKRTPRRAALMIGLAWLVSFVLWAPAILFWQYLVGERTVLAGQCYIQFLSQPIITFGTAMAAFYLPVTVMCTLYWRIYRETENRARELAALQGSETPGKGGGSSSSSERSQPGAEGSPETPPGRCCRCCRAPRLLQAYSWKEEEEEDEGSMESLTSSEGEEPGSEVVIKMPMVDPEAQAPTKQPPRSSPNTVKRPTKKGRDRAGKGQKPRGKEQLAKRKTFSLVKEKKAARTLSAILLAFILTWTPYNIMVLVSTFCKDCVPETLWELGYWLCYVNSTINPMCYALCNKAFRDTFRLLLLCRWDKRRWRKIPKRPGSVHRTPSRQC
Nature of the assay: Functional mobilization of intracellular calcium (FLIPR), M1-CHO cells. Particulars: for Emax: 100% efficacy = maximum response obtained with the Carbachol control; for M1 Activity: M1-CHO cells, calcium mobilization (FLIPR). An outline of the steps:
as §1

The target of another assay is T3, M4 muscarinic receptor (Homo sapiens, UniProt P08173).
T3 construct: expressed in transfected cells; host or cells: CHO (M4-CHO)
T3 sequence (P08173 1-479): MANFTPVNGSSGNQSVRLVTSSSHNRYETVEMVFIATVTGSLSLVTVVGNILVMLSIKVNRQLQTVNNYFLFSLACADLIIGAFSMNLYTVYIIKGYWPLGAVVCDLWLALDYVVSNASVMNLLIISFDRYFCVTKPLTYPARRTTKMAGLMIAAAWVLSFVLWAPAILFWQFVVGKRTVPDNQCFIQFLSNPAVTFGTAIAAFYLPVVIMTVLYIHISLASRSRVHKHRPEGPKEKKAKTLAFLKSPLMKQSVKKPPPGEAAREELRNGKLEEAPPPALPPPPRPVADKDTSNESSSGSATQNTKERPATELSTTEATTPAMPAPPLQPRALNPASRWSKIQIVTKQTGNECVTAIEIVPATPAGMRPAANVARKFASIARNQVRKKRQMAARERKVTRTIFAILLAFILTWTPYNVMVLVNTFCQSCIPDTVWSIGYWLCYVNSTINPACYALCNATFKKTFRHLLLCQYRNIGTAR
Nature of the assay: Functional mobilization of intracellular calcium (FLIPR), M4-CHO cells. Particulars: for Emax: 100% efficacy = maximum response obtained with the Carbachol control; for M4 Activity: M4-CHO cells, calcium mobilization (FLIPR). An outline of the steps:
as §1

The target of the next assay is T4, M2 muscarinic receptor (Homo sapiens, UniProt P08172).
T4 construct: expressed in transfected cells; host or cells: CHO (M2-CHO)
T4 sequence (P08172 1-466): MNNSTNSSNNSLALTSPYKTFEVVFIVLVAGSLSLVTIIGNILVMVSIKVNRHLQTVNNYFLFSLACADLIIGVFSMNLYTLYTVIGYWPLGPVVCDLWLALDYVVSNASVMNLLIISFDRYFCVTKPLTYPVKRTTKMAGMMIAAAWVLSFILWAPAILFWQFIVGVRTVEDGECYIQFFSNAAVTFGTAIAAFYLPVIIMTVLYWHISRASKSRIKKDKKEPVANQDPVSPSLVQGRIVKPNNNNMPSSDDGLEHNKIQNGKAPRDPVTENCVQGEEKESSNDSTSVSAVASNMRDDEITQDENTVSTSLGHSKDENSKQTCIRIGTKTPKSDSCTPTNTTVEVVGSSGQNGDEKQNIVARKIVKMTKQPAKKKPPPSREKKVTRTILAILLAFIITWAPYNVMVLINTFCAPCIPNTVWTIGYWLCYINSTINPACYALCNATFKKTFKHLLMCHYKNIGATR
Nature of the assay: Functional mobilization of intracellular calcium (FLIPR), M2-CHO cells. The conditions noted are these: for Emax: 100% efficacy = maximum response obtained with the Carbachol control; for M2 Activity: M2-CHO cells, calcium mobilization (FLIPR). An outline of the steps:
as §1

T1 sequence (P20309 whole entry): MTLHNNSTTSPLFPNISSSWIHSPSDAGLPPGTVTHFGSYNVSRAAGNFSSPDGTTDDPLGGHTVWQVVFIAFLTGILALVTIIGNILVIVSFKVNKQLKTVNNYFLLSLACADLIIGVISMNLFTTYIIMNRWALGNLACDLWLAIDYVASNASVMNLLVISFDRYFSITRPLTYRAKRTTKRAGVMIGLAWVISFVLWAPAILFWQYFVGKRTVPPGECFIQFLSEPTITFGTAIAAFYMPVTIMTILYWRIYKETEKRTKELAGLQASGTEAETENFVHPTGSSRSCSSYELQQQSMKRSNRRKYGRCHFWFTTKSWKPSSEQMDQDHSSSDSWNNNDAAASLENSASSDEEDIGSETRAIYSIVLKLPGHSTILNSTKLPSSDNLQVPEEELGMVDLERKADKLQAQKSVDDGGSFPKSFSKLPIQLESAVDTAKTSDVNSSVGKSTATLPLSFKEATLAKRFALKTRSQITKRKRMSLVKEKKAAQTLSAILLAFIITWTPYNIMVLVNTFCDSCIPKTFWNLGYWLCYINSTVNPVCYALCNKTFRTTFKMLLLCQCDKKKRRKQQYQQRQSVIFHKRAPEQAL

`COc1ccccc1C1CCN(C2CCCS(=O)(=O)CC2)CC1` (stereo not drawn) [Compound 66]: at M3 muscarinic receptor, the Emax was less than 25% and the “M3 Activity” value is given as “+ (activity was measured to be greater than 5.0 μM)”. For the same compound, on M1 muscarinic receptor, the Emax lay in the range of 25 to 100% and the “M1 Activity” value was “+ (activity was measured to be greater than 5.0 μM)”. For the same compound, on M4 muscarinic receptor, the Emax lay in the range of 25 to 100% and the “M4 Activity” value was “++ (activity was measured to be from 1.0 μM to 5.0 μM)”. Besides, at M2 muscarinic receptor, the Emax was less than 25% and the “M2 Activity” value is “+ (activity was measured to be greater than 5.0 μM)”.

As for `COc1ccc(-c2ccccc2C)cc1C1CCN([C@@H]2C[C@H]3CC[C@H]2C3)CC1` [Compound 67], on M3 muscarinic receptor, the Emax was less than 25% and the “M3 Activity” value was “+ (activity was measured to be greater than 5.0 μM)”. Besides, at M1 muscarinic receptor, the Emax is less than 25% and the “M1 Activity” value is listed as “+ (activity was measured to be greater than 5.0 μM)”. In addition, on M4 muscarinic receptor, the Emax was 25 to 100% and the “M4 Activity” value is listed as “+ (activity was measured to be greater than 5.0 μM)”. Also, at M2 muscarinic receptor, the Emax was less than 25% and the “M2 Activity” value was “+ (activity was measured to be greater than 5.0 μM)”.

Consider `CCOc1ccccc1C1CCN([C@H]2C[C@H]3CC[C@H]2C3)CC1` [Compound 68], for which, on M3 muscarinic receptor, the Emax was less than 25% and the “M3 Activity” value is on record as “+ (activity was measured to be greater than 5.0 μM)”. For the same compound, on M1 muscarinic receptor, the Emax lay within 25 to 100% and the “M1 Activity” value is recorded as “++ (activity was measured to be from 1.0 μM to 5.0 μM)”. In addition, on M4 muscarinic receptor, the Emax was 25 to 100% and the “M4 Activity” value is on record as “+++ (activity was measured to be less than 1.0 μM)”. Also, on M2 muscarinic receptor, the Emax is less than 25% and the “M2 Activity” value is on record as “+ (activity was measured to be greater than 5.0 μM)”.

As to `COc1cccc(-c2ccc(OC)c(C3CCN([C@@H]4C[C@H]5CC[C@H]4C5)CC3)c2)c1` [Compound 69], on M3 muscarinic receptor, the Emax is less than 25% and the “M3 Activity” value was “+ (activity was measured to be greater than 5.0 μM)”. On M1 muscarinic receptor, the Emax is less than 25% and the “M1 Activity” value is reported as “+ (activity was measured to be greater than 5.0 μM)”. For the same compound, on M4 muscarinic receptor, the Emax is 25 to 100% and the “M4 Activity” value is recorded as “+ (activity was measured to be greater than 5.0 μM)”. Moreover, on M2 muscarinic receptor, the Emax is less than 25% and the “M2 Activity” value is recorded as “+ (activity was measured to be greater than 5.0 μM)”.

For `FC(F)(F)Oc1ccccc1C1CCN(C2CCOCC2)CC1` [Compound 70], on M3 muscarinic receptor, the Emax was less than 25% and the “M3 Activity” value was “+ (activity was measured to be greater than 5.0 μM)”. Moreover, at M1 muscarinic receptor, the Emax fell in the range of 25 to 100% and the “M1 Activity” value is “+ (activity was measured to be greater than 5.0 μM)”. Moreover, on M4 muscarinic receptor, the Emax fell in the range of 25 to 100% and the “M4 Activity” value is “++ (activity was measured to be from 1.0 μM to 5.0 μM)”. On M2 muscarinic receptor, the Emax was less than 25% and the “M2 Activity” value is on record as “+ (activity was measured to be greater than 5.0 μM)”.

Take `COc1ccccc1C1CCN(C2CCN(C(=O)c3ccccc3)CC2)CC1` [Compound 71]: at M3 muscarinic receptor, the Emax is less than 25% and the “M3 Activity” value is listed as “+ (activity was measured to be greater than 5.0 μM)”. Besides, at M1 muscarinic receptor, the Emax was less than 25% and the “M1 Activity” value is given as “+ (activity was measured to be greater than 5.0 μM)”. On M4 muscarinic receptor, the Emax is less than 25% and the “M4 Activity” value is “+ (activity was measured to be greater than 5.0 μM)”. On M2 muscarinic receptor, the Emax is less than 25% and the “M2 Activity” value is “+ (activity was measured to be greater than 5.0 μM)”.

Turning to `Cc1ccc(F)cc1C1CCN(C2C[C@H]3CC[C@H]2C3)CC1` (stereo partly drawn) [Compound 73], at M3 muscarinic receptor, the Emax was less than 25% and the “M3 Activity” value is “+ (activity was measured to be greater than 5.0 μM)”. In addition, at M1 muscarinic receptor, the Emax lay within 25 to 100% and the “M1 Activity” value was “++ (activity was measured to be from 1.0 μM to 5.0 μM)”. Also, on M4 muscarinic receptor, the Emax lay in the range of 25 to 100% and the “M4 Activity” value was “+++ (activity was measured to be less than 1.0 μM)”. Further, at M2 muscarinic receptor, the Emax fell in the range of 25 to 100% and the “M2 Activity” value was “++ (activity was measured to be from 1.0 μM to 5.0 μM)”.

As for `COc1ccc(Cl)cc1C1(F)CCN(C2C3CCCC2CCC3)CC1` (stereo not drawn) [Compound 74], on M3 muscarinic receptor, the Emax was less than 25% and the “M3 Activity” value was “+ (activity was measured to be greater than 5.0 μM)”. Further, at M1 muscarinic receptor, the Emax was less than 25% and the “M1 Activity” value is “+ (activity was measured to be greater than 5.0 μM)”. Besides, at M4 muscarinic receptor, the Emax is less than 25% and the “M4 Activity” value is on record as “+ (activity was measured to be greater than 5.0 μM)”. In addition, at M2 muscarinic receptor, the Emax was less than 25% and the “M2 Activity” value is “+ (activity was measured to be greater than 5.0 μM)”.

In the case of `COc1cc(F)c(F)cc1C1CCN([C@@H]2C[C@H]3CC[C@H]2C3)CC1` [Compound 76], on M3 muscarinic receptor, the Emax was less than 25% and the “M3 Activity” value is given as “+ (activity was measured to be greater than 5.0 μM)”. In addition, on M1 muscarinic receptor, the Emax is less than 25% and the “M1 Activity” value was “+ (activity was measured to be greater than 5.0 μM)”. At M4 muscarinic receptor, the Emax was 25 to 100% and the “M4 Activity” value is given as “++ (activity was measured to be from 1.0 μM to 5.0 μM)”. Also, at M2 muscarinic receptor, the Emax is less than 25% and the “M2 Activity” value is reported as “+ (activity was measured to be greater than 5.0 μM)”.

As for `COc1ccc(-c2ccc3c(c2)OCO3)cc1C1CCN(C2CC3CCC(C3)C2)CC1` (stereo not drawn) [Compound 77], on M3 muscarinic receptor, the Emax is less than 25% and the “M3 Activity” value is “+ (activity was measured to be greater than 5.0 μM)”. Besides, on M1 muscarinic receptor, the Emax was less than 25% and the “M1 Activity” value is listed as “+ (activity was measured to be greater than 5.0 μM)”. Besides, at M4 muscarinic receptor, the Emax fell in the range of 25 to 100% and the “M4 Activity” value is listed as “+ (activity was measured to be greater than 5.0 μM)”. For the same compound, on M2 muscarinic receptor, the Emax was less than 25% and the “M2 Activity” value is given as “+ (activity was measured to be greater than 5.0 μM)”.

Consider `COc1ccc(F)cc1C1CCN([C@H]2C[C@H]3CC[C@H]2C3)CC1` [Compound 78], for which, on M3 muscarinic receptor, the Emax is less than 25% and the “M3 Activity” value is reported as “+ (activity was measured to be greater than 5.0 μM)”. Besides, at M1 muscarinic receptor, the Emax lay within 25 to 100% and the “M1 Activity” value is listed as “++ (activity was measured to be from 1.0 μM to 5.0 μM)”. Besides, at M4 muscarinic receptor, the Emax lay in the range of 25 to 100% and the “M4 Activity” value is on record as “+++ (activity was measured to be less than 1.0 μM)”. Also, on M2 muscarinic receptor, the Emax is less than 25% and the “M2 Activity” value was “+ (activity was measured to be greater than 5.0 μM)”.

For the compound `COc1ccccc1C1CCN(C2CC3CCC2C3)CC1` (stereo not drawn) [Compound 79], at M3 muscarinic receptor, the Emax was less than 25% and the “M3 Activity” value is “+ (activity was measured to be greater than 5.0 μM)”. At M1 muscarinic receptor, the Emax lay in the range of 25 to 100% and the “M1 Activity” value is recorded as “+ (activity was measured to be greater than 5.0 μM)”. Moreover, on M4 muscarinic receptor, the Emax is 25 to 100% and the “M4 Activity” value is on record as “+++ (activity was measured to be less than 1.0 μM)”. In addition, at M2 muscarinic receptor, the Emax is less than 25% and the “M2 Activity” value is “+ (activity was measured to be greater than 5.0 μM)”.

For orientation: Emax means the size of the effect at its maximum, as opposed to the concentration needed.
